Results from ChEMBL document CHEMBL5316306 (J Med Chem, 2023).
Active and inactive are the calls of the source. The calls are words filed in the database; no cut-off is given here.

How the values were obtained:
[1] = target: T1, Proteasome subunit beta type-8 (Homo sapiens, UniProt P28062); assay: Inhibition of human 20s immunoproteasome beta-5i subunit
T1 sequence (P28062 whole entry): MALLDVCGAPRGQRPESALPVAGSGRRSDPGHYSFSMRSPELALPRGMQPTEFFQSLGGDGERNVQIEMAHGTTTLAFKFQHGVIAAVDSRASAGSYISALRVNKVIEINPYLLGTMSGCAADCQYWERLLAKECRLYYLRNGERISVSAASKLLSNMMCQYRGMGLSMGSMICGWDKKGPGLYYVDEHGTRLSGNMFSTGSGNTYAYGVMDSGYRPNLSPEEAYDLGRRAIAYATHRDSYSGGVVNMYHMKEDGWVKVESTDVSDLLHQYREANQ

[2] = target: T2, Proteasome Macropain subunit MB1 (Homo sapiens, UniProt P28074); assay: Inhibition of human 20s constitutive proteasome beta-5c
T2 sequence (P28074 whole entry): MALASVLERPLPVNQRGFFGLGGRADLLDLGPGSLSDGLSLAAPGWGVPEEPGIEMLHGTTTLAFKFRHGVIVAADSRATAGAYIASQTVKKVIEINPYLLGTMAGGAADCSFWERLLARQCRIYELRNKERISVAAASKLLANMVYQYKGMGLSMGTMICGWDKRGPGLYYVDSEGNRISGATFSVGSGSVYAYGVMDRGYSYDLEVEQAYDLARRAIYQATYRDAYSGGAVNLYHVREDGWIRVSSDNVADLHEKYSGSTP

MM1.S [3] = assay: Cytotoxicity against human MM1.S cells after 72 hrs by celltitre-glo assay; format: functional, cell-based
[4] = target: T3, Proteasome subunit beta type-10 (Homo sapiens, UniProt P40306); assay: Inhibition of human 20s immunoproteasome beta-2i subunit
T3 sequence (P40306 whole entry): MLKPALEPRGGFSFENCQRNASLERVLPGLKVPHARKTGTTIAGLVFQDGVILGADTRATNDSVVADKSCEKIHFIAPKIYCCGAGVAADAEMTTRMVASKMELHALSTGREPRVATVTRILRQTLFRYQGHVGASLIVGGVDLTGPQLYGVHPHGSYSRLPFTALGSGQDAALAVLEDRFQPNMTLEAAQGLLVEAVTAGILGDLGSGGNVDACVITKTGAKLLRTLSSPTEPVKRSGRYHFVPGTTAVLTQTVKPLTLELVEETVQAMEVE

[5] = target: T4, Proteasome subunit beta type-9 (Homo sapiens, UniProt P28065); assay: Inhibition of human 20s immunoproteasome beta-1i subunit
T4 sequence (P28065 whole entry): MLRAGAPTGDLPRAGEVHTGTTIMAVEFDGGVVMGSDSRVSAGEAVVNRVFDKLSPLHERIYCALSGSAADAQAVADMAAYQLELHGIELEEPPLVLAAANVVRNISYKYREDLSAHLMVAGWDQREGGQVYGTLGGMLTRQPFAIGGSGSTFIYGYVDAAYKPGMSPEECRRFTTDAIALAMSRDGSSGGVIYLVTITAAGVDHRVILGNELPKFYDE

RPMI-8226 [6] = assay: Cytotoxicity against human RPMI-8226 cells after 72 hrs by celltitre-glo assay; format: functional, cell-based; settings: RPMI-8226, 72 h
HepG2 = assay: Cytotoxicity against human HepG2 cells after 72 hrs by celltitre-glo assay; format: functional, cell-based; settings: HepG2, 72 h
RPMI-8226 [7] = assay: Synergistic cytotoxic activity against human RPMI-8226 cells after 72 hrs in presence of 0.5 uM of (S)-(3-((2-(2-(1H-indol-3-yl)-2-oxoacetamido)-4-(tert-butylamino)-4-oxobutanamido)methyl)phenyl)boronic acid by celltitre-glo assay; format: functional, cell-based
MM1.S [8] = assay: Synergistic cytotoxic activity against human MM1.S cells after 72 hrs in presence of 0.01 uM of (S)-(3-((2-(2-(1H-indol-3-yl)-2-oxoacetamido)-4-(tert-butylamino)-4-oxobutanamido)methyl)phenyl)boronic acid by celltitre-glo assay; format: functional, cell-based
[9] = target: T1, Proteasome subunit beta type-8; assay: Inhibition of 20s immunoproteasome beta-5i subunit (unknown origin)
[10] = target: T2, Proteasome Macropain subunit MB1; assay: Inhibition of 20s constitutive proteasome beta-5c (unknown origin)
[11] = target: T5, Proteasome Macropain subunit MB1 (Homo sapiens) (UniProt P28074); assay: Time dependent inhibition of human 20s constitutive proteasome beta-5c assessed as restoration of enzyme activity at 10 nM using suc-LLVY-AMC as substrate; settings: time <= 90.0 min, TDE = time-dependent effect
T5 sequence (whole entry): T2 sequence (P28074 whole entry)

[12] = target: T5, Proteasome Macropain subunit MB1 (Homo sapiens); assay: Inhibition of 20s constitutive proteasome beta-5c (unknown origin) assessed as recovery half life time
[13] = target: T6, Proteasome subunit beta type-8 (Homo sapiens) (UniProt P28062); settings: dose 250.0 nM, time <= 90.0 min
T6 sequence (whole entry): T1 sequence (P28062 whole entry)

RPMI-8226 [14] = assay: Synergistic cytotoxic activity against human RPMI-8226 cells after 72 hrs in presence of 0.25 uM of (S)-N5-(tert-butyl)-N1-((S)-1-(((4-fluoronaphthalen-1-yl)methyl)amino)-3-methoxy-1-oxopropan-2-yl)-2-((4-methylphenyl)sulfonamido)pentanediamide by celltitre-glo assay; format: functional, cell-based; settings: RPMI-8226, 72 h
PBMC = assay: Cytotoxicity against human PBMC cells expressing 20s immunoproteasome beta-5i after 72 hrs by celltitre-glo assay; format: functional, cell-based
[15] = target: T5, Proteasome Macropain subunit MB1 (Homo sapiens); assay: Inhibition of 20s constitutive proteasome beta-5c in human HepG2 cells incubated by proteasome glo assay kit analysis; format: cell-based; settings: time <= 1.0 hrs
[16] = target: T6, Proteasome subunit beta type-8 (Homo sapiens); assay: Time dependent inhibition of human 20s immunoproteasome beta-5i subunit assessed as restoration of enzyme activity at 250 nM using Ac-ANW-AMC as substrate incubated upto 90 mins
Trypsin (Homo sapiens) = Trypsin (Homo sapiens) (UniProt P07477+P07478+P35030); assay: Inhibition of human trypsin at 33.3 uM; format: protein assay
[17] = target: T5, Proteasome Macropain subunit MB1 (Homo sapiens); assay: Inhibition of human 20s constitutive proteasome beta-5c assessed as restoration of enzyme activity at 2 nM incubated for 1 hr followed by compound removal by dialysis measured after 1 hr
[18] = target: Chymotrypsin (Homo sapiens) (UniProt Q99895+P17538+P40313+Q6GPI1); assay: Inhibition of human chymotrypsin at 11.1 uM; format: protein assay
[19] = target: Procathepsin L (Homo sapiens) (UniProt P07711); assay: Inhibition of human cathepsin L at 100 uM
Chain of Procathepsin L (Homo sapiens) (P07711 114-333 limits assumed): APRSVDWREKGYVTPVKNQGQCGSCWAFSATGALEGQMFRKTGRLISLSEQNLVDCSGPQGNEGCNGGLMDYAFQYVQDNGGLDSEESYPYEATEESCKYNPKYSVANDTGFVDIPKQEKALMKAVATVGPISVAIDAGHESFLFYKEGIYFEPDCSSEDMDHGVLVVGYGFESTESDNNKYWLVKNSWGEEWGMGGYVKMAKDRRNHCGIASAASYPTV

[20] = target: T5, Proteasome Macropain subunit MB1 (Homo sapiens); assay: Time dependent inhibition of human 20s constitutive proteasome beta-5c assessed as restoration of enzyme activity at 10 nM using suc-LLVY-AMC as substrate incubated upto 90 mins
MM1.S [21] = assay: Synergistic cytotoxic activity against human MM1.S cells after 72 hrs in presence of 0.02 uM of (S)-N5-(tert-butyl)-N1-((S)-1-(((4-fluoronaphthalen-1-yl)methyl)amino)-3-methoxy-1-oxopropan-2-yl)-2-((4-methylphenyl)sulfonamido)pentanediamide by celltitre-glo assay; format: functional, cell-based
[22] = target: T6, Proteasome subunit beta type-8 (Homo sapiens); assay: Inhibition of 20s immunoproteasome beta-5i in human PBMC cells incubated by proteasome glo assay kit analysis; format: cell-based; settings: time <= 1.0 hrs

SMILES	IC50 [1]	IC50 [2]	also measured
Cc1ccc(S(=O)(=O)N[C@@H](CC(=O)NC(C)(C)C)C(=O)NCc2ccc(B(O)O)o2)cc1	57.2 µM	2.6 µM	–
CC(C)(C)NC(=O)C[C@H](NC(=O)C(=O)C1CC1)C(=O)NCc1cccc(B(O)O)c1	> 100 µM	24.1 µM	–
Cc1ccc(S(=O)(=O)N[C@@H](CC(=O)NC(C)(C)C)C(=O)NCc2ccccc2)cc1	> 100 µM	> 100 µM	–
CC(C)(C)NC(=O)C[C@H](NC(=O)CN1CCOCC1)C(=O)NCc1cccc(B(O)O)c1	> 100 µM	> 100 µM	–
Cc1ccc(S(=O)(=O)N[C@@H](CC(=O)NC(C)(C)C)C(=O)NCc2cccc(O)c2)cc1	> 100 µM	> 100 µM	–
Cc1ccc(S(=O)(=O)N[C@@H](CC(=O)NC(C)(C)C)C(=O)NCc2ccc(B(O)O)cc2)cc1	> 100 µM	> 100 µM	–
COC[C@H](NC(=O)[C@H](CCC(=O)NC(C)(C)C)NS(=O)(=O)c1ccc(C)cc1)C(=O)NCc1ccc(F)c2ccccc12	–	–	EC50 (MM1.S [3]): 0.125 µM; EC50 (RPMI-8226 [7]): 0.006 µM; EC50 (MM1.S [8]): 0.125 µM; EC50 (RPMI-8226 [6]): 0.69 µM
Cc1ccc(S(=O)(=O)N[C@@H](CC(=O)NC(C)(C)C)C(=O)NCc2cccc(C(=O)O)c2)cc1	> 100 µM	> 100 µM	–
Cc1ccc(S(=O)(=O)N[C@@H](CC(=O)NC(C)(C)C)C(=O)NCc2ccc(B(O)O)s2)cc1	> 100 µM	> 100 µM	–
CC(C)C[C@H](NC(=O)CN1CCOCC1)C(=O)N[C@@H](C[C@H]1CC[C@H](C2CCCCC2)CC1)C(=O)N[C@@H](Cc1ccccc1)C(=O)N[C@@H](C)C(=O)[C@@]1(C)CO1	–	–	IC50 [9]: 22.8 µM
CC(C)C[C@H](NC(=O)[C@H](Cc1ccccc1)NC(=O)c1cnccn1)B(O)O [BORTEZOMIB]	–	–	TDI [11]: Tde; EC50 (MM1.S [3]): 0.002 µM; TIME [12]: 1.83 h; EC50 (RPMI-8226 [6]): 0.004 µM; TDI [13]: Tde; EC50 (HepG2): 0.013 µM
Cc1ccc(S(=O)(=O)N[C@@H](CC(=O)NC(C)(C)C)C(=O)NCc2cccc(F)c2)cc1	> 100 µM	> 100 µM	–
Cc1ccc(S(=O)(=O)N[C@@H](CC(=O)NC(C)(C)C)C(=O)NCc2cccs2)cc1	> 100 µM	> 100 µM	–
COC[C@H](NC(=O)c1cc(C)on1)C(=O)N[C@@H](COC)C(=O)N[C@@H](CC(C)C)C(=O)[C@@]1(C)CO1	–	–	IC50 [10]: 0.02 µM; IC50 [9]: 0.3 µM
CC(C)(C)NC(=O)C[C@H](NC(=O)Cc1c[nH]c2ccccc12)C(=O)NCc1cccc(B(O)O)c1	69.2 µM	0.7 µM	–
Cc1ccc(S(=O)(=O)N[C@@H](CC(=O)NC(C)(C)C)C(=O)NCc2cccc(B(O)O)c2)cc1	> 100 µM	0.21 µM	–
COc1ccc(Cc2noc(CN(C(=O)COc3ccc(Br)cc3)C(C)C)n2)cc1OC	–	–	IC50 [10]: 0.037 µM
Cc1cc(C(=O)N[C@@H](CC(=O)NC(C)(C)C)C(=O)NCc2cccc(B(O)O)c2)no1	> 100 µM	5.9 µM	–
CC(C)(C)NC(=O)C[C@H](NC(=O)C(=O)c1c[nH]c2ccccc12)C(=O)NCc1cccc(B(O)O)c1	7.1 µM	0.01 µM	EC50 (RPMI-8226 [14]): 0.173 µM; EC50 (MM1.S [3]): 0.057 µM; EC50 (PBMC): > 50 µM; IC50 [4]: > 33.3 µM; inhibition [15]: Dose-Dependent Effect; TDI [16]: inactive; inhibition (Trypsin (Homo sapiens)): inactive; IC50 [5]: > 33.3 µM; inhibition [17]: inactive; inhibition [18]: inactive; inhibition [19]: inactive; TDI [20]: inactive; EC50 (MM1.S [21]): 0.01 µM; EC50 (RPMI-8226 [6]): 1.67 µM; inhibition [22]: Dose-Dependent Effect; EC50 (HepG2): 3.2 µM

Second part, led by results:

IC50 [1]	IC50 [2]	SMILES	also measured
> 100 µM	0.24 µM	CC(C)(C)NC(=O)C[C@H](NC(=O)C(=O)c1ccccc1)C(=O)NCc1cccc(B(O)O)c1	–
11.3 µM	0.085 µM	CC(C)(C)NC(=O)CC[C@H](NC(=O)C(=O)c1c[nH]c2ccccc12)C(=O)NCc1cccc(B(O)O)c1	EC50 (MM1.S [3]): 0.76 µM; IC50 [4]: > 33.3 µM; IC50 [5]: > 33.3 µM; EC50 (RPMI-8226 [6]): 15 µM; EC50 (HepG2): 49.1 µM
> 100 µM	> 100 µM	Cc1ncc(C(=O)N[C@@H](CC(=O)NC(C)(C)C)C(=O)NCc2cccc(B(O)O)c2)s1	–
> 100 µM	> 100 µM	CC(C)(C)NC(=O)C[C@H](NC(=O)c1cnccn1)C(=O)NCc1cccc(B(O)O)c1	–
> 100 µM	> 100 µM	Cc1ccc(S(=O)(=O)N[C@@H](CC(=O)NC(C)(C)C)C(=O)Nc2ccc(B(O)O)cc2)cc1	–
> 100 µM	> 100 µM	Cc1ccc(S(=O)(=O)N[C@@H](CC(=O)NC(C)(C)C)C(=O)NCc2ccco2)cc1	–
57.7 µM	1.4 µM	CC(C)(C)NC(=O)C[C@H](NC(=O)c1cc(Cl)ccc1Cl)C(=O)NCc1cccc(B(O)O)c1	–
> 100 µM	0.005 µM	CCCc1ccc(OCC(=O)N(Cc2nc(-c3cccnc3)no2)C(C)C)cc1	IC50 [10]: 0.027 µM; IC50 [9]: 2.17 µM
45.2 µM	3 µM	COC[C@H](NC(=O)C(=O)c1c[nH]c2ccccc12)C(=O)NCc1cccc(B(O)O)c1	–
47.9 µM	0.75 µM	CC(C)(C)NC(=O)C[C@H](NC(=O)CCc1ccc(F)cc1)C(=O)NCc1cccc(B(O)O)c1	–
> 100 µM	> 100 µM	Cc1ccc(S(=O)(=O)N[C@@H](CC(=O)NC(C)(C)C)C(=O)NCc2cccc(C(F)(F)F)c2)cc1	–
> 100 µM	> 100 µM	Cc1ccc(S(=O)(=O)N[C@@H](CC(=O)NC(C)(C)C)C(=O)Nc2cccc(B(O)O)c2)cc1	–
> 100 µM	3.8 µM	CC(C)(C)NC(=O)C[C@H](NC(=O)c1ccccc1)C(=O)NCc1cccc(B(O)O)c1	–
22.8 µM	3.8 µM	CC(C)(C)NC(=O)C[C@H](NC(=O)c1cc(-c2ccccc2)ccn1)C(=O)NCc1cccc(B(O)O)c1	–
